Data set [1] relates to HL-60. The data set is described as follows: Induction of apoptosis in human HL60 cells assessed as late apoptotic cells at 100 uM after 24 hrs by Annexin-V-FITC/propidium iodide staining based flow cytometric analysis (reference value: 0.85 +/- 0.13 %). It is filed as functional. (In general: A flow cytometer gives signals particle by particle.)
The subject of data set [2] is HL-60. The data set can be described thus: Cytotoxicity against human HL60 cells after 24 hrs by MTT assay. It is filed as functional, cell-based. To be noted: HL-60, 24 h.
Data set [3] concerns Jurkat E6.1. The data set is described as follows: Induction of apoptosis in human Jurkat E6-1 cells assessed as late apoptotic cells at 100 uM after 24 hrs by Annexin-V-FITC/propidium iodide staining based flow cytometric analysis (reference value: 0.73 +/- 0.14 %). It is filed as functional.
Data set [4] has as its system Plasmodium berghei. The data set is described as follows: Antimalarial activity against chloroquine-susceptible Plasmodium berghei ANKA infected in Balb-C mouse assessed as mean survival days at 10 mg/kg, ip administered once daily for 4 days (reference value: 8.4 +/- 0.15 day). In kind it is functional.
For data set [5], the system named is HL-60. The data set can be described thus: Induction of apoptosis in human HL60 cells assessed as necrotic cells at 100 uM after 24 hrs by Annexin-V-FITC/propidium iodide staining based flow cytometric analysis (reference value: 1.96 +/- 0.33 %). It is filed as functional.
The test system of data set [6] is Jurkat E6.1. The data set is described as follows: Induction of apoptosis in human Jurkat E6-1 cells assessed as early apoptotic cells at 100 uM after 24 hrs by Annexin-V-FITC/propidium iodide staining based flow cytometric analysis (reference value: 0.5 +/- 0.07 %). It is filed as functional.
Data set [7] concerns HL-60. The data set is described as follows: Induction of apoptosis in human HL60 cells assessed as early apoptotic cells at 100 uM after 24 hrs by Annexin-V-FITC/propidium iodide staining based flow cytometric analysis (reference value: 0.36 +/- 0.02 %). In kind it is functional.
Data set [8] concerns Plasmodium berghei. The data set is described as follows: Antimalarial activity against chloroquine-susceptible Plasmodium berghei ANKA infected in Balb-C mouse assessed as parasitemia at 10 mg/kg, ip administered once daily for 4 days measured post last dose by Giemsa staining based method (reference value: 65.8 +/- 4.38%). It is filed as functional.
For data set [9], the system named is Jurkat E6.1. The data set can be described thus: Cytotoxicity against human Jurkat E6-1 cells after 24 hrs by MTT assay. It is filed as functional, cell-based. To be noted: Jurkat E6.1, 24 h. On the technique in general: Tetrazolium dyes change colour on reduction, which living cells bring about.
The next data set has as its system Jurkat. The data set can be described thus: Cytotoxicity against human Jurkat cells after 20 hrs by propidium iodide staining based flow cytometry. In kind it is functional, cell-based.
Data set [10] in a line: Inhibition of beta-hematin formation assessed as reduction in acetate buffer-initiated hemozoin formation measured after 48 hrs. The arrangement: concentration or dose not given beside the values. Conditions: concentration not given here.
Data set [11] concerns Jurkat E6.1. The data set is described as follows: Induction of apoptosis in human Jurkat E6-1 cells assessed as necrotic cells at 100 uM after 24 hrs by Annexin-V-FITC/propidium iodide staining based flow cytometric analysis (reference value: 1.26 +/- 0.24 %). It is filed as functional.
The test system of the next data set is Lymphocyte. The data set can be described thus: Cytotoxicity against human lymphocytes after 24 to 48 hrs by MTT assay. It is filed as cell-based.
Data set [12] deals with HL-60. The data set is described as follows: Induction of apoptosis in human HL60 cells assessed as necrotic cells at 5 uM after 24 hrs by Annexin-V-FITC/propidium iodide staining based flow cytometric analysis (reference value: 1.96 +/- 0.33 %). In kind it is functional.
For data set [13], the system named is Jurkat E6.1. The data set is described as follows: Induction of apoptosis in human Jurkat E6-1 cells assessed as late apoptotic cells at 5 uM after 24 hrs by Annexin-V-FITC/propidium iodide staining based flow cytometric analysis (reference value: 0.73 +/- 0.14 %). It is filed as functional.
Data set [14] relates to HL-60. The data set is described as follows: Induction of apoptosis in human HL60 cells assessed as late apoptotic cells at 5 uM after 24 hrs by Annexin-V-FITC/propidium iodide staining based flow cytometric analysis (reference value: 0.85 +/- 0.13 %). It is filed as functional.
The nature of data set [15]: Selectivity index, ratio of IC50 for human lymphocytes to IC50 for human Jurkat E6-1 cells. In kind it is toxicity. To be noted: human lymphocytes versus Jurkat E6-1 cells, read-out: Ratio IC50.
Data set [16] relates to Mus musculus. The data set can be described thus: Toxicity in Balb-C mouse infected with chloroquine-susceptible Plasmodium berghei ANKA assessed as effect on body weight at 20 mg/kg, ip administered once daily for 4 days measured at 30 days post infection. To be noted: in vivo, 720 h. It is filed as organism-based.
A short description of data set [17]: Safety index, ratio of test compound IC50 to doxorubicin IC50 for human lymphocytes. It is filed as ADME, cell-based, Lymphocyte. Conditions: read-out: Ratio IC50.
Data set [18] is described as follows: Selectivity index, ratio of IC50 for human lymphocytes to IC50 for human HL60 cells. It is filed as toxicity. To be noted: human lymphocytes versus HL60 cells, read-out: Ratio IC50.
Data set [19] concerns Jurkat E6.1. The data set is described as follows: Induction of apoptosis in human Jurkat E6-1 cells assessed as early apoptotic cells at 5 uM after 24 hrs by Annexin-V-FITC/propidium iodide staining based flow cytometric analysis (reference value: 0.5 +/- 0.07 %). It is filed as functional.
Data set [20] has as its system Jurkat E6.1. The data set is described as follows: Induction of apoptosis in human Jurkat E6-1 cells assessed as necrotic cells at 5 uM after 24 hrs by Annexin-V-FITC/propidium iodide staining based flow cytometric analysis (reference value: 1.26 +/- 0.24 %). It is filed as functional.
Data set [21] has as its system HL-60. The data set can be described thus: Induction of apoptosis in human HL60 cells assessed as early apoptotic cells at 5 uM after 24 hrs by Annexin-V-FITC/propidium iodide staining based flow cytometric analysis (reference value: 0.36 +/- 0.02 %). It is filed as functional.
Data set [22] relates to Mus musculus. The data set is described as follows: Toxicity in Balb-C mouse infected with chloroquine-susceptible Plasmodium berghei ANKA assessed as survival at 20 mg/kg, ip administered once daily for 4 days measured at 30 days post infection. It is filed as organism-based. Conditions: in vivo, 720 h.
For data set [23], the system named is Jurkat E6.1. The data set is described as follows: Induction of apoptosis in human Jurkat E6-1 cells assessed as late apoptotic cells at 1 uM after 24 hrs by Annexin-V-FITC/propidium iodide staining based flow cytometric analysis (reference value: 0.73 +/- 0.14 %). It is filed as functional.
The test system of data set [24] is HL-60. The data set can be described thus: Induction of apoptosis in human HL60 cells assessed as early apoptotic cells at 1 uM after 24 hrs by Annexin-V-FITC/propidium iodide staining based flow cytometric analysis (reference value: 0.36 +/- 0.02 %). It is filed as functional.
The test system of data set [25] is Jurkat E6.1. The data set is described as follows: Induction of apoptosis in human Jurkat E6-1 cells assessed as early apoptotic cells at 1 uM after 24 hrs by Annexin-V-FITC/propidium iodide staining based flow cytometric analysis (reference value: 0.5 +/- 0.07 %). In kind it is functional.
Data set [26] concerns HL-60. The data set can be described thus: Induction of apoptosis in human HL60 cells assessed as late apoptotic cells at 1 uM after 24 hrs by Annexin-V-FITC/propidium iodide staining based flow cytometric analysis (reference value: 0.85 +/- 0.13 %). In kind it is functional.
Data set [27] deals with HL-60. The data set can be described thus: Induction of apoptosis in human HL60 cells assessed as necrotic cells at 1 uM after 24 hrs by Annexin-V-FITC/propidium iodide staining based flow cytometric analysis (reference value: 1.96 +/- 0.33 %). It is filed as functional.
Data set [28] has as its system Jurkat E6.1. The data set can be described thus: Induction of apoptosis in human Jurkat E6-1 cells assessed as necrotic cells at 1 uM after 24 hrs by Annexin-V-FITC/propidium iodide staining based flow cytometric analysis (reference value: 1.26 +/- 0.24 %). In kind it is functional.

For orientation: IC50 means the concentration that inhibits the measured activity by half. Usually inhibition stands for the relative decrease from the control value, in per cent.

Consider `CCN(CC)CCCC(C)Nc1ccnc2cc(Cl)ccc12` (centres undefined) [CHLOROQUINE], for which the Activity in the data set on HL-60 [1] worked out at 2.14%; in the data set on Jurkat E6.1 [3], 7.85%; in the data set with HL-60 [5], 23.6%; in the data set on Jurkat E6.1 [6], 1.4%; in the data set on HL-60 [7], 0.66%; in the data set with Plasmodium berghei [8] it was 0.8%. Further, in the data set on Jurkat E6.1 [11], the Activity is recorded as 23.7%. Further, the IC50 with HL-60 [2] was more than 100 µM; with Jurkat E6.1 [9], 83.6 µM; in the data set on Jurkat it was 95 µM; with Lymphocyte, more than 100 µM. In the data set on Plasmodium berghei [4], the MSD stood at 29.98 days. Further, the inhibition in data set [10] came to 98.5%.

Turning to `COC(=O)/C(=C\c1ccc(OC(=O)c2ccc(OC)c(OC)c2OC)cc1)Sc1ccnc2cc(Cl)ccc12`, the IC50 came to 2.08 µM in the data set with HL-60 [2], 2.41 µM in the data set with Jurkat E6.1 [9] and 22.4 µM with Lymphocyte. Besides, the Activity with HL-60 [12] is listed as 62.1%; in the data set with Jurkat E6.1 [13] it was 4.12%; in the data set on HL-60 [14] it was 7.38%; in the data set with Plasmodium berghei [8], 1%; with Mus musculus [16], “Non-Toxic”; in the data set on Jurkat E6.1 [19] it was 0.58%. The Activity was 55.6% with Jurkat E6.1 [20], 0.75% with HL-60 [21] and “Non-Toxic” with Mus musculus [22]. Further, the MSD in the data set with Plasmodium berghei [4] came to 29.83 days. In addition, the selectivity ratio was determined as 9.27 in [15], 5.1 in data set [17] and 10.8 in data set [18]. For the same compound, the inhibition in data set [10] worked out at 85.1%.

As to `COc1cccc2c1C(=O)c1c(O)c3c(c(O)c1C2=O)C[C@@](O)(C(=O)CO)C[C@@H]3O[C@H]1C[C@H](N)[C@H](O)[C@H](C)O1` [DOXORUBICIN], the figures for the half-maximal inhibitory concentration (IC50) in the data set on HL-60 [2], in the data set with Jurkat E6.1 [9] and in the data set on Lymphocyte were 1.6 µM, 1.03 µM and 4.36 µM, respectively. The Activity with Jurkat E6.1 [23] was found to be 19.8%; in the data set on HL-60 [24] it was 1.91%; with Jurkat E6.1 [25] it was 0.89%; with HL-60 [26], 20.8%; in the data set on HL-60 [27], 30.2%; in the data set with Jurkat E6.1 [28], 32.6%.

Source of the values: ChEMBL document CHEMBL4184243, “Optimization of antimalarial, and anticancer activities of (E)-methyl 2-(7-chloroquinolin-4-ylthio)-3-(4-hydroxyphenyl) acrylate” (Bioorg Med Chem, 2018).
